pIC50: −log10 of the molar value.
Experiments:
[1] = tested on: L1210 mouse leukemia cells transformed with the pHaMDR1/A retrovirus carrying a MDR1 cDNA (L1210VMDRC.06); assay: MDR sensitization assay: reversal of MDR to doxorubicin in L1210VMDRC.06 cells (MTT or XTT viability, 3 days) (Table 1); details: for MDR Ratio 1.0 μM Cpd. / MDR Ratio (2.5 μM): mouse, l1210vmdrc.06 cells, 72 h
Experimental: To assay the ability of the compounds according to this invention to increase the antiproliferative activity of a drug, cell lines which are known to be resistant to a particular drug may be used. These cell lines include, but are not limited to, the L1210, P388D, CHO and MCF7 cell lines. Alternatively, resistant cell lines may be developed. The cell line is exposed to the drug to which it is resistant, or to the test compound; cell viability is then measured and compared to the viability of cells which are exposed to the drug in the presence of the test compound.
We have carried out assays using L1210 mouse leukemia cells transformed with the pHaMDR1/A retrovirus carrying a MDR1 cDNA, as described by Pastan et al., Proc. Natl. Acad. Sci., Vol. 85, 4486-4490 (1988). The resistant line, labelled L1210VMDRC.06, was obtained from Dr. M. M. Gottesman of the National Cancer Institute.
Multi-drug resistance assays were conducted by plating cells (2×10^3, 1×10^4, or 5×10^4 cells/well) in 96 well microtiter plates and exposing them to a concentration range of doxorubicin (50 nM-10 μM) in the presence or absence of multi-drug resistance modifier compounds ("MDR inhibitors") of this invention (1, 2.5 or 10 μM) as described in Ford et al., Cancer Res., Vol. 50, 1748-1756. (1990). After culture for 3 days, the viability of cells was quantitated using MTT (Mossman) or XTT dyes to assess mitochondrial function. All determinations were made in replicates of 4 or 8. Also see, Mossman T., J. Immunol. Methods, Vol. 65, 55-63 (1983).
Results were determined by comparison of the IC50 for doxorubicin alone to the IC50 for doxorubicin+MDR inhibitor. An MDR ratio was calculated (IC50 Dox/IC50 Dox+Inhibitor) and the integer value used for comparison of compound potencies.

HL60/ADR cells = assay: Inhibition of MRP-mediated MDR: reversal of MDR to doxorubicin in HL60/ADR cells (XTT viability, 3 days) (Table 2); assay type: cell-based; details: Homo sapiens, 72 h, read-out: IC50 Dox alone
Experimental: We plated HL60/ADR cells in 96 well microtiter plates (4×10^4 cells/well). The cells were then exposed to various concentrations of doxorubicin (50 nM to 10 μM) in the presence or absence of various compounds of this invention at various concentrations (0.5-10 μM). After culturing the cells for 3 days, their viability was quantitated using the XTT dye method to assess mitochondrial function. Results were expressed as a ratio of the IC50 for doxorubicin alone to the IC50 for doxorubicin plus MDR inhibitor. IC50 values are expressed in nM. In all assays the intrinsic antiproliferative or cytotoxicity activity of the MDR inhibitors was also determined for HL60/ADR cells.

Compound | MDR Ratio 1.0 μM Cpd. [1] | MDR Ratio (2.5 μM) [1] | other results
CN(C(=O)N1CCCCC1C(=O)OC(CCc1ccccc1)CCc1ccccc1)c1ccc(S(=O)(=O)O)cc1 (stereo not drawn) [Compound 14, 4-(Methyl-(2-(1-phenethyl-3-phenyl-propoxycarbonyl)-piperidine-1-carbonyl)-amino)-benzenesulfonic acid] | 1.9 | 3.6 | –
CN(C(=O)N1CCCC[C@H]1C(=O)OC(COCc1ccccc1)COCc1ccccc1)c1ccc(N2CCCCC2)cc1 [Compound 17, (S)-1-(Methyl-(4-piperidin-1-yl-phenyl)-carbamoyl)-piperidine-2-carboxylic acid 2-benzyloxy-1-(benzyloxy-methyl)-ethyl ester] | – | 10.7 | –
COc1cccc2c1C(=O)c1c(O)c3c(c(O)c1C2=O)C[C@@](O)(C(=O)CO)C[C@@H]3O[C@H]1C[C@H](N)[C@H](O)[C@H](C)O1 [Dox, doxorubicin, reference compound] | – | – | pIC50 (HL60/ADR cells): 5.30
COc1cc(N(C)C(=O)N2CCCC[C@H]2C(=O)OC(CCc2ccccc2)CCc2ccccc2)cc(OC)c1OC [Compound 13, (S)-1-((3,4,5-Trimethoxyphenyl)-methyl-carbamoyl)-piperidine-2-carboxylic acid 1-(2-phenyl-ethyl)-3-phenyl-propyl ester] | 3.0 | 11.5 | –
O=C(OC(COCc1ccccc1)COCc1ccccc1)[C@@H]1CCCCN1C(=O)Oc1cccc2ncccc12 [Compound 18, (S)-Piperidine-1,2-dicarboxylic acid 2-(2-benzyloxy-1-(benzyloxymethyl)-ethyl)ester 1-quinolin-5-yl ester] | – | 13.6 | –
COc1cc(N(C)C(=O)N2CCCC[C@H]2C(=O)OC(CCCc2cccnc2)CCCc2cccnc2)cc(OC)c1OC [Compound 5, (S)-1-((3,4,5-Trimethoxyphenyl)-methyl-carbamoyl)-piperidine-2-carboxylic acid 4-pyridin-3-yl-1-(3-pyridin-3-yl-propyl)-butyl ester] | 2.8 | 7.8 | –
CN(C(=O)N1CCCC[C@H]1C(=O)OC(CCCc1cccnc1)CCCc1cccnc1)c1cccc(C(F)(F)F)c1 [Compound 6, (S)-1-((3-Trifluoromethylphenyl)-methyl-carbamoyl)-piperidine-2-carboxylic acid 4-pyridin-3-yl-1-(3-pyridin-3-yl-propyl)-butyl ester] | – | 14.6 | –
CN(C(=O)N1CCCC[C@H]1C(=O)OC(COCc1ccccc1)COCc1ccccc1)c1ccc(N2CCOCC2)cc1 [Compound 16, (S)-1-(Methyl-(4-morpholin-1-yl-phenyl)-carbamoyl)-piperidine-2-carboxylic acid 2-benzyloxy-1-(benzyloxy-methyl)-ethyl ester] | – | 10.7 | –
CN(C(=O)N1CCCC[C@H]1C(=O)OC(CCCc1cccnc1)CCCc1cccnc1)c1ccc(C(C)(C)C)cc1 [Compound 7, (S)-1-((4-Tert-butylphenyl)-methyl-carbamoyl)-piperidine-2-carboxylic acid 4-pyridin-3-yl-1-(3-pyridin-3-yl-propyl)-butyl ester] | 4.0 | 15.4 | –
CC(C)c1ccc(N(C)C(=O)N2CCCC[C@H]2C(=O)OC(CCCc2cccnc2)CCCc2cccnc2)cc1 [Compound 8, (S)-1-((4-Isopropylphenyl)-methyl-carbamoyl)-piperidine-2-carboxylic acid 4-pyridin-3-yl-1-(3-pyridin-3-yl-propyl)-butyl ester] | 1.9 | 3.6 | –
COc1cc(OC(=O)N2CCCC[C@H]2C(=O)OC(CCCc2cccnc2)CCCc2cccnc2)cc(OC)c1OC [Compound 11, (S)-Piperidine-1,2-dicarboxylic acid 1-(3,4,5-trimethoxyphenyl) ester 2-(4-pyridin-3-yl-1-(3-pyridin-3-yl-propyl)-butyl) ester] | 1.2 | 2.3 | –
(S)-1-((3,4,5-Trimethoxyphenyl)-methyl-carbamoyl)-piperidine-2-carboxylic acid 4-pyridin-1-yl-1-(3-pyridin-1-yl-propyl)-butyl ester [Compound 10] | – | – | IC50 Dox + 1 μM Cpd. ([1]; IC50 of doxorubicin in presence of 1 μM compound, L1210VMDRC.06 cells, 3 days): 400; IC50 Dox + 2.5 μM Cpd. ([1]; IC50 of doxorubicin in presence of 2.5 μM compound, L1210VMDRC.06 cells, 3 days): 85
O=C(OC(CCCc1cccnc1)CCCc1cccnc1)[C@@H]1CCCCN1C(=O)N1CCCCC1 [Compound 9, (S)-1-(Piperidine-1-carbonyl)-piperidine-2-carboxylic acid 4-pyridin-3-yl-1-(3-pyridin-3-yl-propyl)-butyl ester] | 1.3 | 6.9 | –
